The record followed here is patent EP0825877B1, “COMPOSITION FOR PREVENTION OF POSTERIOR CAPSULE OPACIFICATION” (Pfizer Health AB, priority 1995, dated 1996).

Data set [1] in a line: Diffusion experiment in a Sundelöf cell. The format is physicochemical. The settings on record: 100 µg/ml of Doxorubicin; Sundelöfcell; hyaluronate 10 mg/ml. As to the method: Doxorubicin is slowly released from the hyaluronate-doxorubicine solution. […] The diffusion of Doxorubicine out of the hyaluronate solution is more than three times slower than the diffusion of doxorubicine in water. In a diffusion experiment using 100 µg/ml of Doxorubicin in a Sundelöfcell (Sundelöf L-O, 1982, Anal. Biochem, 127,282-286, Laurent T C, Preston B N Sundelöf L-O Van Damme M P, 1982, Anal. Biochem, 127, 287-292), it took 20 hours for 20 % of doxorubicin in water to diffuse into the upper compartment as compared to 70 hours for the doxorubicine in hyaluronate (10 mg/ml).

In data set [2] the test system is secondary cataract formation. Description: In vivo study in rabbits: secondary cataract weighed two months after phacoemulsification, IOL implantation and doxorubicin injection. Set-up: species or system Albino rabbits. The settings on record: 1 µg doxorubicin; 100 µl into the capsular bag behind the IOL; two months postoperatively. As to the method:
Albino rabbits were used. In both eyes the crystalline lens was removed by phacoemusification. In both eyes a PMMA IOL was implanted into the capsular bag. In one eye 100 µl of the doxorubicin-Healon slution was injected into the capsular bag behind the IOL. The fellow eye received 100 µ 1 Healon. Two months postoperatively the animals were killed, and the secondary cataracts were removed and weighed to the neariest mg. In one group the doxorubicin was injected dissolved in ta buffer solution instead of Healon. This in order to compare the efficacy when doxorubicin was dissolved in either Healon or buffer. There was a dose dependent inhibitory effect of doxorubicin dissolved in Healon. The doses of 3, 1 and 0.3 µg all gave a significant decrease of the secondary cataract formation. When comparing the dosage 1 µg injected in either Healon of buffer, there was a significant better inibitory effect when doxorubicin was delivered in Healon.
The amount of secondary cataract tissue was typically: […]

Data set [3] has as its system secondary cataract formation. Description: In vivo secondary cataract formation (PCO wet mass), 5-FU single dose versus slow release. Set-up: species or system rabbits. As to conditions: for inhibition of PCO: PCO measured as wet mass. As for the experimental part:
5 mg of 5-FU was given to rabbits either as a single dose (instant release) or as a slow release formulation prepared according to Example 3 where 5 mg 5-FU was released over 3 or 12 days in vivo. The amount of secondary cataract formation in the rabbits were evaluated according to Lundgren at al (Lundgren B, Jonsson E and Rolfsen W, 1992, Acta Ophthalmol. Suppl 205:25-28). The single saline dose of 5-FU reduced the secondary cataract formation by 50% while the SR-formulation (SR-3 and SR-10) reduced the secondary cataract formation by 70 and 100% respectively.

For `COc1cccc2c1C(=O)c1c(O)c3c(c(O)c1C2=O)C[C@@](O)(C(=O)CO)C[C@@H]3O[C@H]1C[C@H](N)[C@H](O)[C@H](C)O1` [doxorubicin in buffer, doxorubicin], the “time for 20 % of doxorubicin to diffuse into the upper compartment” value in data set [1] is 20 h. Further, in data set [2], the “amount of secondary cataract tissue” value amounted to 65 ± 15 mg.

Take `O=c1[nH]cc(F)c(=O)[nH]1` [5-FU, 5-fluoro-uracil]: the “inhibition of PCO” value in data set [3] (5 mg administered as a single dose) was 50%; in data set [3] (5 mg delivered over 2-3 days) it was 70%; in data set [3] (5 mg delivered over 10-12 days) it was above 90%. For the same compound, in data set [3] (5 mg of 5-FU, single saline dose or slow release over 3 or 12 days), the “reduction of secondary cataract formation” value is 50%.
